In one data set the test system is rSCNN1A (r ENaCα) mRNA. The experiment in a line: Screening of ENaCα siNAs in Rat H-4-II-E cells (quantitative RT-PCR). The settings on record: Rat H-4-II-E cells, n = 3; for Mean (rSCNN1A expression normalized to the level of rGAPDH) / Percent Reduction of the r ENaCα mRNA relative to a non-targeting control siNA (NTCs) / Avg GAPDH Expression (rGAPDH): 24 hours post-transfection; for Avg ENaCα Expression (rSCNN1A): harvested 24 hours post-transfection; for Avg GAPDH Expression (rGAPDH): housekeeping gene used for normalisation. On the set-up: Percent Reduction of the r ENaCα mRNA relative to a non-targeting control siNA (NTCs) / Rat % KD (efficacy of ENaCα mRNA knockdown): concentration or dose not given beside the values. It is filed as cell-based. The method, then:
(§1) A series of probes and primers were used to detect the various mRNA transcripts of the genes of ENaCa and GAPDH in mouse, rat, and human cell lines. The assays were performed on an ABI 7500 instrument, according to the manufacturer's instructions. Within each experiment, the baseline was set in the exponential phase of the amplification curve, and based on the intersection point of the baselines with the amplification curve, a Ct value was assigned by the instrument. This Ct value was then assigned a QTY value based on the Standard Curve. The standard curve in the various experiments herein used 1 ng to 300 ng of RNA extracted from the same cell line used for the experimental transfections.
(§2) All IC50 values were calculated from the data using GraphPad Prizm software, specifically a sigmoidal, variable slope curve for simple ligand binding. Also, unless otherwise indicated, all calculations of the efficacy and potency (e.g., % knockdown) of the siNAs were done relative to a non-targeting control siNA. If reported, P-values were computed using The Students t-test, including the Welch Correction for unequal variances.
(§3) In all of the calculations of the % knock-down of mRNA, the calculation was made relative to the normalized level of expression of the gene of interest in the samples treated with the non-targeting control (NTC) unless otherwise indicated. The gene of interest expression level was divided by the level of expression of GAPDH or 36B4 (depending on the species) in each sample. The three replicates for each condition in each experiment were averaged and the standard deviation of those samples was calculated. The following formula was then used to calculate the % of knock-down of the gene of interest:
(§4) The ENaCα siNAs were designed and synthesized as described previously. The siNAs were screened in three cell lines. Human A549 cells, mouse NIH 3T3 and Rat H-4-II-E cells. The data from the screen of ENaCa siNAs in all three species is shown in Tables 3a, 3b, 4a, 4b, 5a, and 5b and a summary of the data for certain siNA molecules is presented in Table 6. Each screen was performed at 24 hrs. The decision to use this time point was based upon the degree of knockdown of the mRNA seen at that time point.

The next data set has as its system mSCNN1A mRNA. The experiment in a line: Screening of ENaCα siNAs in mouse NIH 3T3 cells (quantitative RT-PCR). It is filed as cell-based. Further details: Percent Reduction of the mSCNN1A mRNA relative to a non-targeting control siNA / Mouse % KD (efficacy of ENaCα mRNA knockdown): concentration or dose not given beside the values. The settings on record: mouse NIH 3T3 cells, n = 3; for Mean (mSCNN1A expression normalized to the level of m36B4) / Percent Reduction of the mSCNN1A mRNA relative to a non-targeting control siNA / Avg 36B4 Expression: 24 hours post-transfection; for Avg ENaCα Expression (mSCNN1A): harvested 24 hours post-transfection; for Avg 36B4 Expression: housekeeping gene used for normalisation. The method, then:
siNA constructs (Table 1b) may be tested for efficacy in reducing ENaC RNA expression in, for example, A549 human lung carcinoma cells. A549 (human; ATCC cat# CCL-185) cells were cultured at 37° C. in the presence of 5% CO2 and grown in Ham's F12K medium with 2 mM L-glutamine adjusted to contain 1.5 g/L sodium bicarbonate and supplemented with fetal bovine serum at a final concentration of 10% and 100 U/mL penicillin. The A549 cells were plated approximately 24 hours before transfection in 96-well plates at 7,500 cells/well, 100 μl/well. After 24 hours complexes containing siNA and Lipofectamine 2000 (Invitrogen) were created as follows: a solution of Lipofectamine 2000 in OPTI-MEM was prepared containing Lipofectamine 2000 at a final concentration of 14 μg/ml. In parallel, solutions of the siNAs were prepared in OPTI-MEM at a final concentration of 150 nM. After both solutions were incubated at 20° C. for 20 minutes an equal volume of the siNA solutions and the Lipofectamine 2000 solution were added together for each of the siNAs. The resultant solution has the siNAs at a final concentration of 75 nM and Lipofectamine 2000 at a final concentration of 7 μg/ml. This solution was incubated at 20° C. for 20 minutes. After incubation 50 μl of the solution were added to each of the wells (in triplicate). The final concentration of siNA in each well was 25 nM and the final concentration of Lipofectamine 2000 in each well was 2.33 μg/ml. The plates were incubated for 48 hours with no change of media before harvesting. Dose response curves were determined in a similar manner with each concentration being done in triplicate and maintaining a constant amount of Lipofectamine 2000 in each transfection.
as §1, §2, §3, §4

[invAb] = inverted abasic unit; d = 2'-deoxy (DNA); m = 2'-O-methyl; r = 2'-OH (RNA); f = 2'-fluoro

Results on seven substances are retold here after patent US20110288154A1, “RNA Interference Mediated Inhibition of Epithelial Sodium Channel (ENaC) Gene Expression Using Short Interfering Nucleic Acid (siNA)” (MERCK & CO., INC., priority 2008, published 2011).

In the case of “B AAccGCAuGAAGAcGGccu TTB / AGGccGucuucAuGcGGuuUU (chain 1 AACCGCAUGAAGACGGCCUTT; chain 2 AGGCCGUCUUCAUGCGGUUUU; siRNA; chain 1: sugars from the 5' end ddffdddfdddddfddfffdd, [invAb] at 5' end, 3' end, backbone not given here; chain 2: sugars from the 5' end rrrffmfffffmfmfmmffmm, backbone not given here) [Site 337]”, in the data set with rSCNN1A (r ENaCα) mRNA, the “Mean (rSCNN1A expression normalized to the level of rGAPDH)” value is 0.96, the “Percent Reduction of the r ENaCα mRNA relative to a non-targeting control siNA (NTCs)” value came out at 25.4%, the “Avg ENaCα Expression (rSCNN1A)” value is listed as 16.40 and the “Avg GAPDH Expression (rGAPDH)” value turned out to be 17.17. Besides, in the data set on mSCNN1A mRNA, the “Mean (mSCNN1A expression normalized to the level of m36B4)” value amounted to 0.24, the “Percent Reduction of the mSCNN1A mRNA relative to a non-targeting control siNA” value came out at 0.8%, the “Avg ENaCα Expression (mSCNN1A)” value is reported as 3.42 and the “Avg 36B4 Expression” value was found to be 14.44.

Take “B AAccuGGGcAGccAGuGGA TTB / UCCAcuGGcuGcccAGGuuUU (sense AACCUGGGCAGCCAGUGGATT; antisense UCCACUGGCUGCCCAGGUUUU; siRNA; sense: sugars from the 5' end ddfffdddfddffddfddrdd, [invAb] at 5' end, 3' end, backbone not given here; antisense: sugars from the 5' end rrrmffmmffmfffmmmffmm, backbone not given here) [Site 1747]”: in the data set with rSCNN1A (r ENaCα) mRNA, the “Mean (rSCNN1A expression normalized to the level of rGAPDH)” value was 0.56, the “Percent Reduction of the r ENaCα mRNA relative to a non-targeting control siNA (NTCs)” value was determined as 39.5%, the “Avg ENaCα Expression (rSCNN1A)” value was 23.39 and the “Avg GAPDH Expression (rGAPDH)” value is given as 41.88. In the data set with mSCNN1A mRNA, the “Mean (mSCNN1A expression normalized to the level of m36B4)” value is reported as 0.15, the “Percent Reduction of the mSCNN1A mRNA relative to a non-targeting control siNA” value was −6.1%, the “Avg ENaCα Expression (mSCNN1A)” value was 3.67 and the “Avg 36B4 Expression” value is on record as 25.19.

Take “B AGccAGuGGAGccuGuGGu TTB / ACCAcAGGcuccAcuGGcuUU (sense AGCCAGUGGAGCCUGUGGUTT; antisense ACCACAGGCUCCACUGGCUUU; siRNA; sense: DNA at AGT, 2'-fluoro at CU, [invAb] at 5' end, 3' end, backbone not given here; antisense: sugars from the 5' end rrrmfmmmffffmffmmffmm, backbone not given here) [Site 1756]”: in the data set with rSCNN1A (r ENaCα) mRNA, the “Mean (rSCNN1A expression normalized to the level of rGAPDH)” value came to 0.57, the “Percent Reduction of the r ENaCα mRNA relative to a non-targeting control siNA (NTCs)” value is given as 38.3%, the “Avg ENaCα Expression (rSCNN1A)” value is 23.08 and the “Avg GAPDH Expression (rGAPDH)” value is on record as 40.27. In addition, in the data set on mSCNN1A mRNA, the “Mean (mSCNN1A expression normalized to the level of m36B4)” value is listed as 0.12, the “Percent Reduction of the mSCNN1A mRNA relative to a non-targeting control siNA” value came to 13.5%, the “Avg ENaCα Expression (mSCNN1A)” value is reported as 2.58 and the “Avg 36B4 Expression” value came out at 21.66.

Consider “B AGuGuGGcuGuGccuAcAu TTB / AUGuAGGcAcAGccAcAcuUU (sense AGUGUGGCUGUGCCUACAUTT; antisense AUGUAGGCACAGCCACACUUU; siRNA; sense: DNA at AGT, 2'-fluoro at CU, [invAb] at 5' end, 3' end, backbone not given here; antisense: sugars from the 5' end rrrfmmmfmfmmffmfmffmm, backbone not given here) [Site 1382]”, for which, in the data set on rSCNN1A (r ENaCα) mRNA, the “Mean (rSCNN1A expression normalized to the level of rGAPDH)” value amounted to 0.84, the “Percent Reduction of the r ENaCα mRNA relative to a non-targeting control siNA (NTCs)” value is given as 34.5%, the “Avg ENaCα Expression (rSCNN1A)” value amounted to 22.02 and the “Avg GAPDH Expression (rGAPDH)” value came out at 26.11. Moreover, in the data set with mSCNN1A mRNA, the “Mean (mSCNN1A expression normalized to the level of m36B4)” value amounted to 0.21, the “Percent Reduction of the mSCNN1A mRNA relative to a non-targeting control siNA” value is reported as 10.7%, the “Avg ENaCα Expression (mSCNN1A)” value was 2.94 and the “Avg 36B4 Expression” value came to 13.77.

Regarding “B AccGcAuGAAGAcGGccuu TTB / AAGGccGucuucAuGcGGuUU (chain 1 ACCGCAUGAAGACGGCCUUTT; chain 2 AAGGCCGUCUUCAUGCGGUUU; siRNA; chain 1: DNA at AGT, 2'-fluoro at CU, [invAb] at 5' end, 3' end, backbone not given here; chain 2: sugars from the 5' end rrrmffmfffffmfmfmmfmm, backbone not given here) [Site 338]”, in the data set on rSCNN1A (r ENaCα) mRNA, the “Mean (rSCNN1A expression normalized to the level of rGAPDH)” value is 0.79, the “Percent Reduction of the r ENaCα mRNA relative to a non-targeting control siNA (NTCs)” value came out at 38.7%, the “Avg ENaCα Expression (rSCNN1A)” value amounted to 14.22 and the “Avg GAPDH Expression (rGAPDH)” value turned out to be 18.42. Further, in the data set with mSCNN1A mRNA, the “Mean (mSCNN1A expression normalized to the level of m36B4)” value is on record as 0.26, the “Percent Reduction of the mSCNN1A mRNA relative to a non-targeting control siNA” value was −9.5%, the “Avg ENaCα Expression (mSCNN1A)” value is listed as 3.24 and the “Avg 36B4 Expression” value stood at 12.29.

Turning to “B AccuGGGcAGccAGuGGAG TTB / CUCcAcuGGcuGcccAGGuUU (sense ACCUGGGCAGCCAGUGGAGTT; antisense CUCCACUGGCUGCCCAGGUUU; siRNA; sense: DNA at AGT, 2'-fluoro at CU, [invAb] at 5' end, 3' end, backbone not given here; antisense: sugars from the 5' end rrrfmffmmffmfffmmmfmm, backbone not given here) [Site 1748]”, in the data set on rSCNN1A (r ENaCα) mRNA, the “Mean (rSCNN1A expression normalized to the level of rGAPDH)” value is on record as 0.60, the “Percent Reduction of the r ENaCα mRNA relative to a non-targeting control siNA (NTCs)” value was determined as 34.7%, the “Avg ENaCα Expression (rSCNN1A)” value is on record as 26.11 and the “Avg GAPDH Expression (rGAPDH)” value came to 43.45. Further, in the data set with mSCNN1A mRNA, the “Mean (mSCNN1A expression normalized to the level of m36B4)” value is recorded as 0.15, the “Percent Reduction of the mSCNN1A mRNA relative to a non-targeting control siNA” value is −12.7%, the “Avg ENaCα Expression (mSCNN1A)” value is 4.06 and the “Avg 36B4 Expression” value worked out at 26.15.

Take “B GGGcAGccAGuGGAGccuG TTB / CAGGcuccAcuGGcuGcccUU (sense GGGCAGCCAGUGGAGCCUGTT; antisense CAGGCUCCACUGGCUGCCCUU; siRNA; sense: DNA at AGT, 2'-fluoro at CU, [invAb] at 5' end, 3' end, backbone not given here; antisense: sugars from the 5' end rrrmffffmffmmffmfffmm, backbone not given here) [Site 1752]”: in the data set with rSCNN1A (r ENaCα) mRNA, the “Mean (rSCNN1A expression normalized to the level of rGAPDH)” value is 0.44, the “Percent Reduction of the r ENaCα mRNA relative to a non-targeting control siNA (NTCs)” value is listed as 52.1%, the “Avg ENaCα Expression (rSCNN1A)” value came to 19.23 and the “Avg GAPDH Expression (rGAPDH)” value is 43.83. Further, in the data set on mSCNN1A mRNA, the “Mean (mSCNN1A expression normalized to the level of m36B4)” value was determined as 0.11, the “Percent Reduction of the mSCNN1A mRNA relative to a non-targeting control siNA” value was 19.8%, the “Avg ENaCα Expression (mSCNN1A)” value worked out at 3.21 and the “Avg 36B4 Expression” value came to 29.27.
